Source: patent publication US20040153145A1, “Fixation method for bioprostheses” (Clemson University, priority 2002, published 2004)

What was measured:
pure elastin = experiment: Degradation of orcein-labeled pure elastin by elastase; format: biochemical; settings: versus buffer control elastin, completely degraded
Procedure: Pure elastin labeled with orcein was used as a substrate for the enzyme elastase. The labeled elastin substrate was used per se, as well as labeled elastin fixed separately with glutaraldehyde (GA) and with tannic acid (TA).
Purified insoluble elastin labeled with orcein was treated for 24 hours at room temperature with one of:
0.6% GA in 50 mM Hepes buffered saline at pH 7.4 (GA-fixed elastin);
0.3% TA in 50 mM Hepes buffered saline at pH 7.4 (TA-fixed elastin); or
50 mM Hepes buffered saline at pH 7.4 (Buffer control).
Elastin samples were centrifuged at 3000 rpm for 10 minutes at room temperature, rinsed with double distilled (dd)H2O and dialyzed in ddH2O. Treated elastin was suspended in elastase buffer (50 mM Tris, 1 mM CaCl2, 0.02% NaN3, pH 7.8) at a concentration of 20 mg/ml. A blank of labeled elastin incubated in the absence of elastase was also prepared for comparison.
Pure pancreatic elastase was prepared at a concentration of 1 Unit/ml in elastase buffer (described above), mixed with treated elastin samples in a 1 to 1 ratio and incubated at 37° C. for 3 days. Samples were centrifuged and elastin degradation was assessed by measuring the presence of soluble orcein-labeled elastin peptides in supernatants, by measuring optical density at 570 nm.

[1] = Mass loss of fixed aortic wall after elastase digestion; set-up: species or system Porcine; settings: for % Mass Loss: porcine aortic wall fixed 7 days, 8.5 Units pancreatic elastase, 2 days, 37° C.; for increase in resistance to elastase of aorta: versus fresh aortic wall (60% mass loss in 2 days)
Procedure: Porcine aorta fragments were collected from a local slaughterhouse and placed in ice-cold saline. The aorta fragments were fixed separately with GA, TA, and a combination of GA and TA as described below. Following fixation, the samples were treated with high concentrations of elastase to test resistance to enzymatic degradation.
(§1) Porcine aortic conduits were fixed for 7 days at room temperature in either:
0.6% GA in 50 mM Hepes buffered saline at pH 7.4 (GA);
0.3% TA in 50 mM Hepes buffered saline at pH 7.4 (TA); or
A mixture of 0.6% GA and 0.3% TA in 50 mM Hepes buffered saline at pH 7.4 (GA & TA).
After fixation, tissues were washed in normal saline followed by ddH2O and fragments of 4×4 mm were dissected and lyophilized. Tissue fragments from each group were weighed and incubated for 2 days (about 48 hours) at 37° C. with 8.5 Units of pancreatic elastase in elastase buffer (50 mM Tris, 1 mM CaCl2, 0.02% NaN3, pH 7.8). As positive controls, fresh, untreated tissues exposed to elastase solution were used. Tissue fragments were thoroughly rinsed in ddH2O, lyophilized and weighed. Mass loss due to enzyme digestion was calculated from the difference between tissue weight before and after incubation in elastase. Lower values of Mass Loss, set forth in Table 2 and FIG. 3, are indicative of better tissue preservation and improved putative protection of elastin from enzymatic degradation.

[2] = Calcification of fixed aorta after subdermal implantation in juvenile rats; format: in vivo, Sprague-Dawley rats; settings: porcine aorta, subdermal implant in juvenile rats, +/− SEM, n = 10
Procedure: Porcine aorta fragments were collected from a local slaughterhouse and placed in ice-cold saline. The aorta fragments were fixed with GA and separately with a combination of GA and TA as described below. Following fixation, samples were implanted subdermally in juvenile rats to test for calcification potential.
as §1
0.6% GA in 50 mM Hepes buffered saline at pH 7.4 (GA); or
a mixture of 0.6% GA and 0.3% TA in 50 mM Hepes buffered saline at pH 7.4 (GA & TA).
After fixation, tissues were washed in normal saline and fragments of 4×4 mm were tested for calcification by subdermal implantation in juvenile rats (the process used is described in detail by Bailey M, Xiao H, Ogle M, Vyavahare N., ‘Aluminum chloride pretreatment of elastin inhibits elastolysis by matrix metalloproteinases and leads to inhibition of elastin-oriented calcification,’ The American Journal of Pathology, 2001;159(6):1981-6, which is herein incorporated by reference). […]
At 7 and 21 days after implantation, rats were humanely euthanized, tissue samples explanted from their subdermal pouches, dried and analyzed for calcium content using atomic absorbtion spectrophotometry (as outlined in publication above). […]

[3] = Thermal denaturation temperature (Td) of fixed pericardium by DSC; format: physicochemical, bovine; settings: for Td after 24 hours / Td after 44 hours: bovine pericardium, +/− SEM, n = 6; for Td after 24 hours: fixation 24 hours; for Td after 44 hours: fixation 44 hours
Procedure: Collagen rich tissue was used as a model to test the possible interference of TA with GA-mediated fixation. Samples of bovine pericardium (tissue including about 85% collagen and 5-10% elastin) was fixed at room temperature in one of either: 1% TA in phosphate buffered saline at pH 7.4 for 24 and 44 hours (TA); 0.5% GA in phosphate buffered saline at pH 7.4 for 24 and 44 hours (GA); 0.5% GA in phosphate buffered saline at pH 7.4 for 60 minutes followed by 1% TA in phosphate buffered saline at pH 7.4 for 24 and 44 hours (GA/TA); or 1% TA in phosphate buffered saline at pH 7.4 for 60 minutes followed by 0.5% GA in phosphate buffered saline at pH 7.4 for 24 and 44 hours (TA/GA). After fixation, tissues were washed in normal saline and the extent of cross-linking was evaluated by analysis of the thermal denaturation temperature (Td). Td reflects that the temperature at which native collagen molecules unravel (around 65° C.) is increased in chemically cross-linked tissues. […]. In the case of connective tissues, Td represents the temperature at which native collagen molecules unravel. This process leads to protein denaturation and is recorded as a peak maximum (FIG. 1). […] Tissues (native, GA fixed, TA fixed, and GA/TA combination fixed, as described above) were rinsed in saline and 2 mm^2 samples were cut and hermetically sealed in Differential Scanning Calorimetry (DSC) aluminum pans. Samples were heated at a rate of 10° C./min, from 25° C. to 110° C. and the temperature of thermal denaturation (Td) for each sample was recorded on a Perkin Elmer DSC 7 machine.

Row | Structure (SMILES) | reduction of elastin degradation by elastase (pure elastin) | % Mass Loss [1] | increase in resistance to elastase of aorta [1] | Calcium content after 7 days ([2]; 7 days) | Calcium content after 21 days ([2]; 21 days) | Td after 24 hours [3] | Td after 44 hours [3] | Td ([3]; pericardium, DSC 10° C./min, FIG. 1, fresh around 65° C.)
1 | O=CCCCC=O [GA, glutaraldehyde] | 6.7% | 39.33% | about 20% | 15.31 +/− 1.54 μg Ca/mg dry | 42.18 +/− 2.21 μg Ca/mg dry | 84.5 +/− 0.7 °C | 85.1 +/− 1.1 °C | 87 °C
2 | O=C(OC[C@H]1O[C@@H](OC(=O)c2cc(O)c(O)c(OC(=O)c3cc(O)c(O)c(O)c3)c2)[C@H](OC(=O)c2cc(O)c(O)c(OC(=O)c3cc(O)c(O)c(O)c3)c2)[C@@H](OC(=O)c2cc(O)c(O)c(OC(=O)c3cc(O)c(O)c(O)c3)c2)[C@@H]1OC(=O)c1cc(O)c(O)c(OC(=O)c2cc(O)c(O)c(O)c2)c1)c1cc(O)c(O)c(OC(=O)c2cc(O)c(O)c(O)c2)c1 [TA, tannic acid] |  | 41.56% | about 20% |  |  | 68.4 +/− 1.4 °C | 72.6 +/− 0.9 °C | 
